Data published in ChEMBL document CHEMBL1201862, “PubChem BioAssay data set” (2004).
Active and inactive are the calls of the source.

Tests used:
[1] = viability of uninfected HEp-2 cells – cell-based, HTS, cytotoxicity control for RSV inhibitor project, dose response (AID 2410); assay type: functional; details: human respiratory syncytial virus
[2] = target: T1, Calpain-2 catalytic subunit (Sus scrofa, UniProt P43367); experiment: m-calpain protease blockers, concentration series – biochemical, fluorogenic peptide substrate, dose response (AID 1420); assay type: functional
T1 sequence (P43367 whole entry): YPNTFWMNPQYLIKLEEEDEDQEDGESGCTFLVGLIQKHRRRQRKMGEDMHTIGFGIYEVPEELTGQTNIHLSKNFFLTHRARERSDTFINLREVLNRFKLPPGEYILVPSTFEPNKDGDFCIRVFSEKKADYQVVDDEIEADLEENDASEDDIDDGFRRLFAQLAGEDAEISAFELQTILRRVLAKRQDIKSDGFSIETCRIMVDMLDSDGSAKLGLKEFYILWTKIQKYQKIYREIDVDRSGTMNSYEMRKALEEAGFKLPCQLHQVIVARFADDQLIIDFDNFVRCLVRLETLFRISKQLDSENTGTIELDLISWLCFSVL

[3] = target: T2, Replicative DNA helicase DnaB (Mycobacterium tuberculosis, UniProt P9WMR3); experiment: DnaB intein splicing inhibitors, dose response, biochemical, cell-free fluorescence (AID 449749); assay type: functional
T2 sequence (P9WMR3 whole entry): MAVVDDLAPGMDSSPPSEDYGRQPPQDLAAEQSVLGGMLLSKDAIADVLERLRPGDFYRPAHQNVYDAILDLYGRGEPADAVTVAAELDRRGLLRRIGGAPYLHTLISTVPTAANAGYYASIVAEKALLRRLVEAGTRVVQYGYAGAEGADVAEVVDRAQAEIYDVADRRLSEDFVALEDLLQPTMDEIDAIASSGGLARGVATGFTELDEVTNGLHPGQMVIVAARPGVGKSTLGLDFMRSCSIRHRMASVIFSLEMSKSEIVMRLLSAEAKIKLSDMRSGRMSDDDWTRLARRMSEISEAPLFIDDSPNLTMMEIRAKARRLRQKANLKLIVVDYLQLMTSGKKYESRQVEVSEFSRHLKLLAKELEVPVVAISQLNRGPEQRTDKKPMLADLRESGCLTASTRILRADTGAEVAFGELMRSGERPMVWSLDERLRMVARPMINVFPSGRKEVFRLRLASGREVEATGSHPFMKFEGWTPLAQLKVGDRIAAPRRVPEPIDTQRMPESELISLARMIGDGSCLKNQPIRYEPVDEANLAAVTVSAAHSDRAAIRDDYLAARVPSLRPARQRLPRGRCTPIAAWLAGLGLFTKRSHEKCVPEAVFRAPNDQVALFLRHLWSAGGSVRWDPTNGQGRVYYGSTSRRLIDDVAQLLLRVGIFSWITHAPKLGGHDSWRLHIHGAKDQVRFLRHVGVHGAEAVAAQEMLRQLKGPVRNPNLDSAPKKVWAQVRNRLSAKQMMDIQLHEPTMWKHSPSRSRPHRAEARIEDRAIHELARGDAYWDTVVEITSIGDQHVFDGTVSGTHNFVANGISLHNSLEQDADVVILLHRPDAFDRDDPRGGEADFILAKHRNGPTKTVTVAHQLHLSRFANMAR

[4] = target: T3, Protein RecA (Mycobacterium tuberculosis, UniProt P9WHJ3); experiment: Fluorescence Cell-Free Homogeneous Dose Retest to Identify Inhibitors of RecA-Intein Splicing Activity. [Related pubchem assays (depositor defined):AID2097, AID2223, AID489010, AID492950]; assay type: functional
T3 sequence (P9WHJ3 whole entry): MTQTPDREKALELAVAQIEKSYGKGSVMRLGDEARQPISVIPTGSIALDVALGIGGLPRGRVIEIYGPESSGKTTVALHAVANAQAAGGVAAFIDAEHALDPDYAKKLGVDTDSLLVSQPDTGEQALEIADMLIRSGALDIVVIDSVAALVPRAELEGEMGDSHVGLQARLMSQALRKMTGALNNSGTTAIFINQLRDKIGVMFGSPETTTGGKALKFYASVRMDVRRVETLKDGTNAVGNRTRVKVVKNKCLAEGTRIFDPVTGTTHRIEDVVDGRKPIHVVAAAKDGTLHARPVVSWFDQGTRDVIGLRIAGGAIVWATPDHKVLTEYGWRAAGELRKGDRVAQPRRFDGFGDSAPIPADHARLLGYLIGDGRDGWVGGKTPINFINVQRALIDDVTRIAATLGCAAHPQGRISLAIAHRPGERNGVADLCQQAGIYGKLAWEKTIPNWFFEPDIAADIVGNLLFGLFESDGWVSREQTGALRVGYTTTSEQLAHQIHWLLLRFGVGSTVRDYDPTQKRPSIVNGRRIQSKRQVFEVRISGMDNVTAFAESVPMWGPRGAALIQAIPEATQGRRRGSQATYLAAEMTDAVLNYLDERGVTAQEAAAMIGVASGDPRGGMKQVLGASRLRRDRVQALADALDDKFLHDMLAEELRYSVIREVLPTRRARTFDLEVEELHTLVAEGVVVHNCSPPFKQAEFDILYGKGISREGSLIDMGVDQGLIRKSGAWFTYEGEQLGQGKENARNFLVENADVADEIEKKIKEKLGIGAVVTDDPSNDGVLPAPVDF

[5] = target: T4, Heat shock factor protein 1 (Mus musculus, UniProt P38532); experiment: decrease of HSF1-responsive luciferase luminescence – cell-based, NIH3T3, dose retest, confirmation (AID 2382); assay type: functional;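 also: NIH3T3 fibroblasts with HSF1-driven luciferase reporter stressed by proteasome inhibitor MG132; luminescence from HSF1-driven luciferase expression after 8 hours of MG132 stress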
T4 sequence (P38532 whole entry): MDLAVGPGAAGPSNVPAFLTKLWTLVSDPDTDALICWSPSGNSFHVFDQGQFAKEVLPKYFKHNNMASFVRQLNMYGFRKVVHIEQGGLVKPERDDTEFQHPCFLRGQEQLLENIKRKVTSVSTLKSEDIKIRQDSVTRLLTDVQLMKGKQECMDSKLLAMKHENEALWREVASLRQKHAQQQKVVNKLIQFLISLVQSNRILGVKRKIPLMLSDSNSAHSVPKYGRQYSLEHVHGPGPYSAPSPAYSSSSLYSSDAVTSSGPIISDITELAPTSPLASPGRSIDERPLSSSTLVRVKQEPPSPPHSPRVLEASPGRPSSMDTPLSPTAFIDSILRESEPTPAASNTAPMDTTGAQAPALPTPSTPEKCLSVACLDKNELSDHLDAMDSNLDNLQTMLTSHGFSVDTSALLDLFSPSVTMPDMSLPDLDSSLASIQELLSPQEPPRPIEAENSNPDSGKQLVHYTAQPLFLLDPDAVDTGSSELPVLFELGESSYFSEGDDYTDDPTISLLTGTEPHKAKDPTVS

[6] = Luminescence Cell-Based Dose Retest to Confirm Inhibitors of Cancer Stem Cells. [Related pubchem assays (depositor defined):AID2717, AID2721]; assay type: functional; details: Homo sapiens
[7] = NIH-3T3 fibroblast cytotoxicity, dose response, cytotoxicity control, cell-based, fluorescence, Alamar Blue, secondary assay (AID 2327); assay type: functional;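 also: NIH-3T3 mouse fibroblasts cultured with fluconazole at 8 µg/mL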
[8] = fluconazole-exposed Candida albicans growth modulators – fluorescence, retest, confirmation (AID 2467); assay type: functional, cell-based
[9] = target: T5, Rac GTPase-activating protein 1 (Homo sapiens, UniProt Q9H0H5); experiment: blockers of MgcRacGAP-driven Rac1 GTP hydrolysis – biochemical, ADP Hunter fluorescence, primary and confirmatory, confirmation (AID 624330); assay type: functional
T5 sequence (Q9H0H5 whole entry): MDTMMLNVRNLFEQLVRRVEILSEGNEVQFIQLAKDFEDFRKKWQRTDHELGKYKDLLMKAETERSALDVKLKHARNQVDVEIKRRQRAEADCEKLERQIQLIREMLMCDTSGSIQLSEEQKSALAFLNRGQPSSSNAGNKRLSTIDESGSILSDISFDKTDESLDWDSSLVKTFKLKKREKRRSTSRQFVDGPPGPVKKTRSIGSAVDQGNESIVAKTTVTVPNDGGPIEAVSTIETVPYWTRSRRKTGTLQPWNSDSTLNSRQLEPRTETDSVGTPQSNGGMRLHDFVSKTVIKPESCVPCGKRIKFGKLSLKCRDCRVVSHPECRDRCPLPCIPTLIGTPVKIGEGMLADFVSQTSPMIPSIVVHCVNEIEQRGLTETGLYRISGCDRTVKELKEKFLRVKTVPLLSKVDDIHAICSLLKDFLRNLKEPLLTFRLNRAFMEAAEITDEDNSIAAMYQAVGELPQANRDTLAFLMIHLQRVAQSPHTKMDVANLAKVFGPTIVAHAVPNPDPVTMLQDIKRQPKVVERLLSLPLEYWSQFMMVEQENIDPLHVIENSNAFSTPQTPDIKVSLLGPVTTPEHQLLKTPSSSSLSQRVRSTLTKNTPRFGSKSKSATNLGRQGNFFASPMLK

In the case of `Cc1cccc(N2CCN(C(=O)c3ccc4c(c3)CCN4S(C)(=O)=O)CC2)c1C`, the CC50 [1] is reported as 38.3 µM (active).
In the case of `O=C1CC2C(=O)NCCN2C(NC(=O)c2ccc(Cl)cc2)=N1` (stereo not drawn), the IC50 [2] is reported as 0.931 µM (not active).
For `CC(Oc1ccc(F)cc1)C(=O)Oc1ccc(N(C)S(=O)(=O)c2ccccc2)cc1` (stereo not drawn), the AC50 [3] was 0.725 µM (active) and the EC50 [4] was 58.5 µM (active).
In the case of `CCOC(=O)c1ccc(-n2[nH]c(-c3ccccc3)cc2=O)cc1`, the EC50 [5] is reported as > 195 µM (not active), the AC50 [6] is reported as 5.35 µM (active) and the AC50 [3] is reported as 3.43 µM (active). The EC50 [4] was 2.25 µM (active).
For `Cc1cccc(C(=O)c2cnc3ccccc3c2-c2ccccc2)c1`, the AC50 [3] was 4.79 µM (active) and the EC50 [4] was 22.8 µM (active).
For `COc1ccccc1C1CC(c2ccco2)=NN1S(C)(=O)=O` (stereo not drawn), the EC50 [7] was > 160 µM (inconclusive) and the EC50 [8] was > 38 µM (not active).
In the case of `O=C(Nc1ccc(F)c(Cl)c1)NC1CC1`, the EC50 [7] is reported as > 150 µM (inactive) and the EC50 [8] is reported as 2.1 µM (active).
For `CCOC(=O)N1CCN(CC(=O)Nc2sccc2C#N)CC1`, the IC50 [2] was 33.6 µM (not active).
With `Cc1ccc(N(CCCCN2C(=O)c3ccccc3C2=O)C(=O)c2cccs2)cc1` the CC50 [1] was 38.9 µM (active).
With `Cc1ccc(C2CC(C(F)F)n3ncc(C(=O)Nc4cnn(Cc5ccccc5C)c4)c3N2)cc1` (stereo not drawn) the CC50 [1] was 19.4 µM (active).
In the case of `N#Cc1c(-c2ccc(Cl)cc2)cc(-c2ccccc2)nc1SCC(=O)O`, the EC50 [7] is reported as 134 µM (active) and the EC50 [8] is reported as 1.57 µM (active).
With `CCCCC(=O)Nc1ccc(C(=O)c2ccccc2)cc1` the IC50 [2] was > 50 µM (not active).
In the case of `Cc1nc2ccccc2c2c1C(=O)N(c1cccc(C(=O)O)c1)C2=O`, the AC50 [3] is reported as 37 µM (active) and the EC50 [4] is reported as 17 µM (active).
In the case of `N#Cc1cc2c(nc1SCc1nc3ccccc3[nH]1)CCC2`, the CC50 [1] is reported as 38 µM (active).
With `CCc1n[nH]c2c1C1(CCN(C(=O)c3ccccc3)CC1)C(C#N)=C(N)O2` the AC50 [3] was 24.6 µM (active) and the EC50 [4] was 4.3 µM (active).
In the case of `CC(=O)c1cccc(NC(=S)NC(=O)c2ccc(C)cc2)c1`, the EC50 [7] is reported as > 160 µM (inactive) and the EC50 [8] is reported as > 38 µM (not active).
For `CCOC(=O)C1CCN(Cc2cc(C(C)C)c(O)c(C(C)C)c2)CC1`, the EC50 [4] was > 380 µM (inactive).
With `COc1ccc(CN2C(=O)/C(=C\NNC(=O)c3cccnc3)c3ccccc3C2=O)cc1` the EC50 [7] was 27.4 µM (active), the EC50 [8] was 1.32 µM (active) and the IC50 [9] was 137 µM (active).
In the case of `CCN(c1ccc(OCC(=O)OCC(=O)Nc2ccc(F)c(F)c2F)cc1)S(=O)(=O)c1ccccc1`, the IC50 [2] is reported as 3.96 µM (not active).
For `COc1ccccc1NC(=O)Cn1cnc2c(cnn2-c2ccccc2)c1=O`, the EC50 [7] was > 150 µM (inactive) and the EC50 [8] was > 38 µM (not active).
For `CCCCNc1nnc(SCC(=O)N2CCN(S(=O)(=O)c3ccc4ccccc4c3)CC2)s1`, the CC50 [1] was > 50 µM (active).
In the case of `Cc1ccc(/C=C/C(=O)c2c(C)cc(C)nc2O)cc1`, the CC50 [1] is reported as 17.7 µM (active).
In the case of `CC1=C(C(=O)OCc2ccccc2)C(c2cccs2)N2C(=O)CCSC2=N1` (stereo not drawn), the IC50 [2] is reported as 8.99 µM (not active).
With `CCOC(=O)c1cnc(N)nc1C(F)(F)F` the AC50 [3] was > 380 µM (inactive) and the EC50 [4] was > 380 µM (inactive).
For `Cc1ccc(Cl)cc1N1CCN(C(=O)CCCn2c(=O)c3cccn3c3cccnc32)CC1`, the CC50 [1] was 12.1 µM (active).
In the case of `COc1ccccc1N1CCN(/N=C/c2cc([N+](=O)[O-])ccc2Cl)CC1`, the CC50 [1] is reported as 29 µM (active).
With `CCOC(=O)CN(C(=O)CSc1n[nH]c2c3cc(F)ccc3nc-2n1)c1ccccc1` the IC50 [2] was 5.94 µM (not active).
With `CCOc1ccc2nc(SCC(=O)N3CCN(C(=O)c4ccco4)CC3)sc2c1` the CC50 [1] was 22.8 µM (active).
For `Cc1cc(C)c2c(c1)-c1c(ssc1=S)C(C)(C)N2C(=O)CSc1nncn1C`, the AC50 [3] was 5.32 µM (active) and the EC50 [4] was 8.17 µM (active).
With `CC(C)c1n[nH]c2c1C1(CCN(Cc3ccccc3)CC1)C(C#N)=C(N)O2` the AC50 [3] was 53.5 µM (active) and the EC50 [4] was 1.16 µM (active).
With `N#C/C(=C(/O)CN1C(=O)c2ccccc2C1=O)c1nc2ccccc2[nH]1` the IC50 [2] was 2.28 µM (not active).
With `COc1ccc(/C(=C/Nc2cccc(Br)c2)C(C)=O)cc1OC` the IC50 [2] was 9 µM (not active).
For `CC(C)CS(=O)(=O)C1=NSC2=NC(=O)/C(=C\c3ccc(OC(=O)c4ccco4)cc3)C(=N)N21`, the AC50 [3] was > 380 µM (inactive) and the EC50 [4] was 13.8 µM (active).
With `C=CCn1c(CCCNC(=O)c2ccccc2OC)nc2ccccc21` the IC50 [2] was 13.2 µM (not active).
For `CC(NC(=O)c1ccccc1)c1ccc(F)cc1` (stereo not drawn), the IC50 [2] was > 50 µM (not active).
